Laboratory results from US10233186B2, “Inhibitors of activin receptor-like kinase” (BLUEPRINT MEDICINES CORPORATION, priority 2016, dated 2019).
pIC50: −log10 of the molar value.

What was measured:
[1] = target: T1, ALK2 R206H (GST-tagged mutant ALK2) (Homo sapiens, UniProt Q04771, R206H); test: ALK binding assay (LANTHASCREEN TR-FRET competitive binding, displacement of Kinase Tracer 178); conditions: ALK2 R206H, LANTHASCREEN TR-FRET competitive binding; read-out: Binding Assay (IC50)
T1 construct: purchased Carna Bioscience or ThermoFisher 09-148 or PV6232
T1 sequence (Q04771 21-509 R206H): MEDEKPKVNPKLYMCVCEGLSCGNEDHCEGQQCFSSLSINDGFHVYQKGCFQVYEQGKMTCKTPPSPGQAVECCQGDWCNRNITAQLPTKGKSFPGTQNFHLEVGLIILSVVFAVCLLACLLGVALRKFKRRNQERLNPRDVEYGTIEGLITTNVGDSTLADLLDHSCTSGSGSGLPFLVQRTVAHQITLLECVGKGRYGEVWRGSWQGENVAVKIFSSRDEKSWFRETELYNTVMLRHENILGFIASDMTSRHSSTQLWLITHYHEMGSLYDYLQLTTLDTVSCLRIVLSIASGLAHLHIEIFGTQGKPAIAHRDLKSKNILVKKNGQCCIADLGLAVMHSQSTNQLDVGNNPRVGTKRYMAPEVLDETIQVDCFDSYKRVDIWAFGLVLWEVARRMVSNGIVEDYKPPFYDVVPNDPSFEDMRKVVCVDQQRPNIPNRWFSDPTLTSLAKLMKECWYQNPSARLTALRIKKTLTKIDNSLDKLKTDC

[2] = target: T2, human ALK2 R206H (Homo sapiens, UniProt Q04771, R206H); test: Cell-based ALK2-R206H cell activity assay (Smad1-Ser463/Ser465 phosphorylation by AlphaLISA in HEK293-ALK2-R206H cells); conditions: read-out: Cell Line (Cell Assay IC50)
T2 construct: expressed in transfected cells; host or cells: HEK293 (ATCC CRL1573), lentivirus transduction, blasticidin selection
T2 sequence (Q04771 21-509 R206H): T1 sequence (Q04771 21-509 R206H)
How it was run: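 Stable HEK293 cells expressing C-terminally FLAG-tagged human ALK2 R206H (lentiviral, blasticidin-selected) were treated with compounds in 10-point, 3-fold dilutions from 10 μM or 1 μM top, in duplicate. Smad1 Ser463/Ser465 phosphorylation was read by AlphaLISA.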

SMILES	pIC50 [1]	pIC50 [2]
CCN1CC[C@@H](c2ccc(-c3cc4c(N5CCN(C(=O)C6CC6)CC5)ccnn4c3)cc2)C(F)C1 (stereo partly shown) [Compound 280]	7.30 to 8.00	6.30 to 7.00
O=C(C1CC1)N1CCN(c2ccnn3cc(-c4ccc([C@@H]5CCCN(C6CCC6)C5)cc4)cc23)CC1 [Compound 305]	> 8.00	> 7.00
O=C(C1CC1)N1CCN(c2ccnn3cc(-c4ccc(N5CCN6CCCCC6C5)cc4)cc23)CC1 (stereo not shown) [Compound 307]	> 8.00	6.30 to 7.00
CC(C)N1CC2(CN(c3ccc(-c4cc5c(N6CCN(C(=O)C7CC7)CC6)ccnn5c4)cc3)C2)C1 [Compound 308]	> 8.00	> 7.00
N#CC1CN(C(=O)N2CCN(c3ccnn4cc(-c5ccc(OC6CCCNC6)cc5)cc34)CC2)C1 (stereo not shown) [Compound 309]	> 8.00	6.30 to 7.00
O=C(C1CC1)N1CCN(c2ccnn3cc(-c4ccc(C5CCN(C6COC6)CC5)cc4)cc23)CC1 [Compound 310]	> 8.00	6.30 to 7.00
CC(C)N1CCCC(c2ccc(-c3cc4c(N5CCN(C(=O)C6CCC6)CC5)ccnn4c3)cc2)C1 (stereo not shown) [Compound 312]	> 8.00	> 7.00
CCC(C)N1CCC(c2ccc(-c3cc4c(N5CCN(C(=O)C6CC6)CC5)ccnn4c3)cc2)CC1 (stereo not shown) [Compound 313]	> 8.00	> 7.00
O=C(C1CC1)N1CCN(c2ccnn3cc(-c4ccc(N5CCN(C6COC6)CC5)cc4)cc23)CC1 [Compound 314, cyclopropyl(4-(6-(4-(4-(oxetan-3-yl)piperazin-1-yl)phenyl)pyrrolo[1,2-b]pyridazin-4-yl)piperazin-1-yl)methanone]	7.30 to 8.00	< 6.30
O=C(C1CC1)N1CCN(c2ccnn3cc(-c4ccc(N5CCN6CCOCC6C5)cc4)cc23)CC1 (stereo not shown) [Compound 315]	7.30 to 8.00	6.30 to 7.00
CCN1CCN(c2ccc(-c3cc4c(N5CCN(C(=O)C6CC6)CC5)ccnn4c3)cc2)CC1(C)C [Compound 316]	> 8.00	6.30 to 7.00
CCN1CCC(c2ccc(-c3cc4c(N5CCN(C(=O)N6CCCC6)CC5)ccnn4c3)cc2)CC1 [Compound 317]	> 8.00	6.30 to 7.00
CC(C)N1CCN(c2ccc(-c3cc4c(N5CCN(C(=O)C6CC6)[C@H](C)C5)ccnn4c3)cc2)CC1 [Compound 318]	> 8.00	6.30 to 7.00
CC(C)N1CC[C@H](c2ccc(-c3cc4c(N5CCN(C(=O)[C@H]6C[C@H](O)C6)CC5)ccnn4c3)cc2)C1 [Compound 320]	> 8.00	> 7.00
CC(C)N1CC[C@@H](c2ccc(-c3cc4c(N5CCN(C(=O)[C@H]6C[C@H](O)C6)CC5)ccnn4c3)cc2)C1 [Compound 321]	> 8.00	> 7.00
CCN1CCC(c2ccc(-c3cc4c(N5CCN(C(=O)OC6CCC6)CC5)ccnn4c3)cc2)CC1 [Compound 322]	> 8.00	> 7.00
CC(C)N1CCCC(O)(c2ccc(-c3cc4c(N5CCN(C(=O)C6CC6)CC5)ccnn4c3)cc2)C1 (stereo not shown) [Compound 323]	> 8.00	> 7.00
CC(C)N1CCC(O)(c2ccc(-c3cc4c(N5CCN(C(=O)C6CC6)CC5)ccnn4c3)cc2)CC1 [Compound 324]	> 8.00	> 7.00
CC(C)N1CCC[C@@](O)(c2ccc(-c3cc4c(N5CCN(C(=O)C6CC6)CC5)ccnn4c3)cc2)C1 [Compound 325]	> 8.00	> 7.00
CC(C)N1CCC[C@](O)(c2ccc(-c3cc4c(N5CCN(C(=O)C6CC6)CC5)ccnn4c3)cc2)C1 [Compound 326]	> 8.00	> 7.00

Other lines, results leading:

pIC50 [1]	pIC50 [2]	SMILES
> 8.00	> 7.00	CCN1CCC(c2ccc(-c3cc4c(N5CCN(C(=O)[C@H]6C[C@H]6F)CC5)ccnn4c3)cc2)CC1 [Compound 281]
> 8.00	> 7.00	CC(C)N1CC(F)C(c2ccc(-c3cc4c(N5CCN(C(=O)C6CC6)CC5)ccnn4c3)cc2)C1 (stereo not shown) [Compound 282]
> 8.00	6.30 to 7.00	CC(C)N1CC[C@@H](c2ccc(-c3cc4c(N5CCN(C(=O)C6CC6)CC5)ccnn4c3)cc2F)C1 [Compound 283]
> 8.00	> 7.00	CC(C)N1CC[C@H](c2ccc(-c3cc4c(N5CCN(C(=O)C6CC6)CC5)ccnn4c3)cc2F)C1 [Compound 284]
> 8.00	> 7.00	CCN1CCC(c2ccc(-c3cc4c(N5CCN(C(=O)OC(C)C)CC5)ccnn4c3)cc2)CC1 [Compound 285]
> 8.00	6.30 to 7.00	CCOC(=O)N1CCN(c2ccnn3cc(-c4ccc(C5CCN(CC)CC5)cc4)cc23)C[C@H]1C [Compound 286]
> 8.00	> 7.00	CCOC(=O)N1CCN(c2ccnn3cc(-c4ccc([C@@H]5CCCN(C(C)C)C5)cc4)cc23)CC1 [Compound 287]
> 8.00	> 7.00	CCOC(=O)N1CCN(c2ccnn3cc(-c4ccc([C@H]5CCCN(C(C)C)C5)cc4)cc23)CC1 [Compound 288]
> 8.00	> 7.00	CCNC(=O)N1CCN(c2ccnn3cc(-c4ccc(N5CCN(C(C)C)CC5)cc4)cc23)CC1 [Compound 289]
> 8.00	> 7.00	CCNC(=O)N1CCN(c2ccnn3cc(-c4ccc(C5CCN(C(C)C)CC5)cn4)cc23)CC1 [Compound 290]
> 8.00	> 7.00	CCN1CCN(c2ccc(-c3cc4c(N5CCN(C(=O)[C@@H]6C[C@H]6F)CC5)ccnn4c3)cc2)CC1 [Compound 292]
> 8.00	> 7.00	CCN1CCN(c2ccc(-c3cc4c(N5CCN(C(=O)[C@H]6C[C@H]6F)CC5)ccnn4c3)cc2)CC1 [Compound 293]
> 8.00	> 7.00	CCOC(=O)N1CCN(c2ccnn3cc(-c4ccc(N5CCN(C(C)C)CC5)cc4)cc23)CC1 [Compound 295]
> 8.00	6.30 to 7.00	O=C(C1CC(F)(F)C1)N1CCN(c2ccnn3cc(-c4ccc(N5CCNCC5)cc4)cc23)CC1 [Compound 296]
> 8.00	> 7.00	O=C(C1CC1)N1CCN(c2ccnn3cc(-c4ccc(N5CCNCC5C(F)F)cc4)cc23)CC1 (stereo not shown) [Compound 297]
> 8.00	> 7.00	CC(C)N1CC[C@@H](c2ccc(-c3cc4c(N5CCN(C(=O)[C@H]6C[C@@H]6C#N)CC5)ccnn4c3)cc2)C1 [Compound 298]
> 8.00	> 7.00	CCN1CCC(c2ccc(-c3cc4c(N5CCN(C(=O)N6CC(C#N)C6)CC5)ccnn4c3)cc2)C1 (stereo not shown) [Compound 300, 1-(4-(6-(4-(1-ethylpyrrolidin-3-yl)phenyl)pyrrolo[1,2-b]pyridazin-4-yl)piperazine-1-carbonyl)azetidine-3-carbonitrile]
> 8.00	6.30 to 7.00	CCN1CCN(c2ccc(-c3cc4c(N5CCN(C(=O)[C@H]6C[C@H]6C#N)CC5)ccnn4c3)cc2)CC1 [Compound 301]
> 8.00	> 7.00	CCN1CCN(c2ccc(-c3cc4c(N5CCN(C(=O)[C@H]6C[C@@H]6C#N)CC5)ccnn4c3)cc2)CC1 [Compound 302]
> 8.00	> 7.00	CCN1CC[C@@H](c2ccc(-c3cc4c(N5CCN(C(=O)N6CC(C#N)C6)CC5)ccnn4c3)cc2)C1 [Compound 303]
> 8.00	> 7.00	CCN1CC[C@H](c2ccc(-c3cc4c(N5CCN(C(=O)N6CC(C#N)C6)CC5)ccnn4c3)cc2)C1 [Compound 304]
